Assay: Safety (adverse events, NCI CTCAE v4.0), dose-escalation phase
[1] = dose-escalation QD × 3dQW 6–20 mg
[2] = dose-escalation QD × 5dQW 7–13 mg

Protocol: Patients who received ≥1 dose of sapanisertib were included in the safety population. […] Adverse events (AEs) were assessed using the National Cancer Institute Common Terminology Criteria for Adverse Events, v4.0. Patients were provided with a home blood-glucose meter to monitor their fasting predose blood-glucose measurements to assess hyperglycaemia as an on-target AE and PD marker.

Compound: CC(C)n1nc(-c2ccc3oc(N)nc3c2)c2c(N)ncnc21 [Sapanisertib]
- On-study deaths within 30 days of last dose (both phases): 7
- Acute kidney injury, treatment-related AE (dose-escalation QD 2–7 mg): 1 (3) n (%)
- Anaemia, treatment-related AE (dose-escalation QD 2–7 mg): 3 (10) n (%)
- Any AE (dose-escalation QD 2–7 mg): 31 (100) n (%)
- Any AE resulting in dose modification/interruption (dose-escalation QD 2–7 mg): 22 (71) n (%)
- Any AE resulting in treatment discontinuation (dose-escalation QD 2–7 mg): 11 (35) n (%)
- Any SAE (dose-escalation QD 2–7 mg): 13 (42) n (%)
- Any grade ≥3 AE (dose-escalation QD 2–7 mg): 19 (61) n (%)
- Any treatment-related AE (dose-escalation QD 2–7 mg): 31 (100) n (%)
- Any treatment-related SAE (dose-escalation QD 2–7 mg): 4 (13) n (%)
- Any treatment-related grade ≥3 AE (dose-escalation QD 2–7 mg): 14 (45) n (%)
- Asthenia, treatment-related AE (dose-escalation QD 2–7 mg): 6 (19) n (%)
- Asthenia, treatment-related grade ≥3 AE (dose-escalation QD 2–7 mg): 1 (3) n (%)
- Blood creatinine increased, treatment-related AE (dose-escalation QD 2–7 mg): 7 (23) n (%)
- Decreased appetite, treatment-related AE (dose-escalation QD 2–7 mg): 11 (35) n (%)
- Dehydration, treatment-related AE (dose-escalation QD 2–7 mg): 3 (10) n (%)
- Dehydration, treatment-related grade ≥3 AE (dose-escalation QD 2–7 mg): 0 (0) n (%)
- Diarrhoea, treatment-related AE (dose-escalation QD 2–7 mg): 11 (35) n (%)
- Diarrhoea, treatment-related grade ≥3 AE (dose-escalation QD 2–7 mg): 1 (3) n (%)
- Dry mouth, treatment-related AE (dose-escalation QD 2–7 mg): 5 (16) n (%)
- Dysgeusia, treatment-related AE (dose-escalation QD 2–7 mg): 8 (26) n (%)
- Dyspepsia, treatment-related AE (dose-escalation QD 2–7 mg): 1 (3) n (%)
- Fatigue, treatment-related AE (dose-escalation QD 2–7 mg): 8 (26) n (%)
- Fatigue, treatment-related grade ≥3 AE (dose-escalation QD 2–7 mg): 0 (0) n (%)
- Headache, treatment-related AE (dose-escalation QD 2–7 mg): 0 (0) n (%)
- Hypercholesterolemia, treatment-related AE (dose-escalation QD 2–7 mg): 5 (16) n (%)
- Hyperglycaemia, treatment-related AE (dose-escalation QD 2–7 mg): 25 (81) n (%)
- Hyperglycaemia, treatment-related grade ≥3 AE (dose-escalation QD 2–7 mg): 6 (19) n (%)
- Hypophosphatemia, treatment-related AE (dose-escalation QD 2–7 mg): 0 (0) n (%)
- Hypophosphatemia, treatment-related grade ≥3 AE (dose-escalation QD 2–7 mg): 0 (0) n (%)
- Lymphopenia, treatment-related grade ≥3 AE (dose-escalation QD 2–7 mg): 2 (6) n (%)
- Nausea, treatment-related AE (dose-escalation QD 2–7 mg): 13 (42) n (%)
- Nausea, treatment-related grade ≥3 AE (dose-escalation QD 2–7 mg): 0 (0) n (%)
- On-study deaths (dose-escalation QD 2–7 mg): 1 (3) n (%)
- Pruritus generalised, treatment-related AE (dose-escalation QD 2–7 mg): 8 (26) n (%)
- Pruritus generalised, treatment-related grade ≥3 AE (dose-escalation QD 2–7 mg): 2 (6) n (%)
- Pruritus, treatment-related AE (dose-escalation QD 2–7 mg): 2 (6) n (%)
- Rash maculo-papular, treatment-related AE (dose-escalation QD 2–7 mg): 3 (10) n (%)
- Rash maculo-papular, treatment-related grade ≥3 AE (dose-escalation QD 2–7 mg): 2 (6) n (%)
- Rash, treatment-related AE (dose-escalation QD 2–7 mg): 8 (26) n (%)
- Rash, treatment-related grade ≥3 AE (dose-escalation QD 2–7 mg): 2 (6) n (%)
- Stomatitis (includes oropharyngeal pain and mucosal inflammation), treatment-related AE (dose-escalation QD 2–7 mg): 11 (35) n (%)
- Stomatitis, treatment-related grade ≥3 AE (dose-escalation QD 2–7 mg): 0 (0) n (%)
- Thrombocytopenia, treatment-related grade ≥3 AE (dose-escalation QD 2–7 mg): 2 (6) n (%)
- Vomiting, treatment-related AE (dose-escalation QD 2–7 mg): 8 (26) n (%)
- Weight decreased, treatment-related AE (dose-escalation QD 2–7 mg): 1 (3) n (%)
- Acute kidney injury, treatment-related AE [1]: 0 (0) n (%)
- Anaemia, treatment-related AE [1]: 1 (3) n (%)
- Any AE [1]: 33 (100) n (%)
- Any AE resulting in dose modification/interruption [1]: 21 (64) n (%)
- Any AE resulting in treatment discontinuation [1]: 7 (21) n (%)
- Any SAE [1]: 17 (52) n (%)
- Any grade ≥3 AE [1]: 25 (76) n (%)
- Any treatment-related AE [1]: 32 (97) n (%)
- Any treatment-related SAE [1]: 9 (27) n (%)
- Any treatment-related grade ≥3 AE [1]: 19 (58) n (%)
- Asthenia, treatment-related AE [1]: 10 (30) n (%)
- Asthenia, treatment-related grade ≥3 AE [1]: 4 (12) n (%)
- Blood creatinine increased, treatment-related AE [1]: 2 (6) n (%)
- Decreased appetite, treatment-related AE [1]: 17 (52) n (%)
- Dehydration, treatment-related AE [1]: 1 (3) n (%)
- Dehydration, treatment-related grade ≥3 AE [1]: 1 (3) n (%)
- Diarrhoea, treatment-related AE [1]: 13 (39) n (%)
- Diarrhoea, treatment-related grade ≥3 AE [1]: 0 (0) n (%)
- Dry mouth, treatment-related AE [1]: 2 (6) n (%)
- Dysgeusia, treatment-related AE [1]: 4 (12) n (%)
- Dyspepsia, treatment-related AE [1]: 1 (3) n (%)
- Fatigue, treatment-related AE [1]: 12 (36) n (%)
- Fatigue, treatment-related grade ≥3 AE [1]: 0 (0) n (%)
- Headache, treatment-related AE [1]: 3 (9) n (%)
- Hypercholesterolemia, treatment-related AE [1]: 4 (12) n (%)
- Hyperglycaemia, treatment-related AE [1]: 22 (67) n (%)
- Hyperglycaemia, treatment-related grade ≥3 AE [1]: 7 (21) n (%)
- Hypophosphatemia, treatment-related AE [1]: 5 (15) n (%)
- Hypophosphatemia, treatment-related grade ≥3 AE [1]: 3 (9) n (%)
- Lymphopenia, treatment-related grade ≥3 AE [1]: 2 (6) n (%)
- Nausea, treatment-related AE [1]: 23 (70) n (%)
- Nausea, treatment-related grade ≥3 AE [1]: 2 (6) n (%)
- On-study deaths [1]: 2 (6) n (%)
- Pruritus generalised, treatment-related AE [1]: 6 (18) n (%)
- Pruritus generalised, treatment-related grade ≥3 AE [1]: 1 (3) n (%)
- Pruritus, treatment-related AE [1]: 1 (3) n (%)
- Rash maculo-papular, treatment-related AE [1]: 1 (3) n (%)
- Rash maculo-papular, treatment-related grade ≥3 AE [1]: 0 (0) n (%)
- Rash, treatment-related AE [1]: 7 (21) n (%)
- Rash, treatment-related grade ≥3 AE [1]: 0 (0) n (%)
- Stomatitis (includes oropharyngeal pain and mucosal inflammation), treatment-related AE [1]: 23 (70) n (%)
- Stomatitis, treatment-related grade ≥3 AE [1]: 5 (15) n (%)
- Thrombocytopenia, treatment-related grade ≥3 AE [1]: 0 (0) n (%)
- Vomiting, treatment-related AE [1]: 18 (55) n (%)
- Weight decreased, treatment-related AE [1]: 2 (6) n (%)
- Acute kidney injury, treatment-related AE [2]: 0 (0) n (%)
- Anaemia, treatment-related AE [2]: 0 (0) n (%)
- Any AE [2]: 22 (100) n (%)
- Any AE resulting in dose modification/interruption [2]: 12 (55) n (%)
- Any AE resulting in treatment discontinuation [2]: 6 (27) n (%)
- Any SAE [2]: 10 (45) n (%)
- Any grade ≥3 AE [2]: 14 (64) n (%)
- Any treatment-related AE [2]: 21 (95) n (%)
- Any treatment-related SAE [2]: 4 (18) n (%)
- Any treatment-related grade ≥3 AE [2]: 8 (36) n (%)
- Asthenia, treatment-related AE [2]: 9 (41) n (%)
- Asthenia, treatment-related grade ≥3 AE [2]: 3 (14) n (%)
- Blood creatinine increased, treatment-related AE [2]: 0 (0) n (%)
- Decreased appetite, treatment-related AE [2]: 7 (32) n (%)
- Dehydration, treatment-related AE [2]: 0 (0) n (%)
- Dehydration, treatment-related grade ≥3 AE [2]: 0 (0) n (%)
- Diarrhoea, treatment-related AE [2]: 8 (36) n (%)
- Diarrhoea, treatment-related grade ≥3 AE [2]: 0 (0) n (%)
- Dry mouth, treatment-related AE [2]: 2 (9) n (%)
- Dysgeusia, treatment-related AE [2]: 4 (18) n (%)
- Dyspepsia, treatment-related AE [2]: 0 (0) n (%)
- Fatigue, treatment-related AE [2]: 7 (32) n (%)
